Measurements published in ChEMBL document CHEMBL1201862, “PubChem BioAssay data set” (2004).
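Five concentrations, 48 hours, 96-well plates. GI50 is the concentration that inhibits growth by half.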 Calls of active or inactive are those of the source. No stated cut-off is given here; in the data, active = GI50 up to about 1.1 µM and inactive = higher.

Columns and labels:
Assay in all cases: inhibition of tumour cell growth, NCI panel, 48 h
786-0 = test system: 786-0
A498 = test system: A498
A549 = test system: A549
ACHN = test system: ACHN
BT-549 = test system: BT-549
CAKI-1 = test system: CAKI-1
CCRF-CEM = test system: CCRF-CEM
COLO 205 = test system: COLO 205
DU-145 = test system: DU-145
EKVX = test system: EKVX
HCC 2998 = test system: HCC 2998
HCT-116 = test system: HCT-116
HCT-15 = test system: HCT-15
HL-60 = test system: HL-60
HOP-62 = test system: HOP-62
HOP-92 = test system: HOP-92
HT-29 = test system: HT-29
Hs-578T = test system: Hs-578T
IGROV-1 = test system: IGROV-1
KM12 = test system: KM12
LOX IMVI = test system: LOX IMVI
M14 = test system: M14
MCF7 = test system: MCF7
MDA-MB-231 = test system: MDA-MB-231
MDA-MB-435 = test system: MDA-MB-435
MDA-N = test system: MDA-N
MOLT-4 = test system: MOLT-4
Malme-3M = test system: Malme-3M
NCI-H226 = test system: NCI-H226
NCI-H23 = test system: NCI-H23
NCI-H460 = test system: NCI-H460
NCI-H522 = test system: NCI-H522
NCI/ADR-RES = test system: NCI/ADR-RES
OVCAR-3 = test system: OVCAR-3
OVCAR-4 = test system: OVCAR-4
OVCAR-5 = test system: OVCAR-5
OVCAR-8 = test system: OVCAR-8
PC-3 = test system: PC-3
RPMI-8226 = test system: RPMI-8226
RXF 393 = test system: RXF 393
SF-268 = test system: SF-268
SF-295 = test system: SF-295
SF-539 = test system: SF-539
SK-MEL-28 = test system: SK-MEL-28
SK-MEL-2 = test system: SK-MEL-2
SK-MEL-5 = test system: SK-MEL-5
SK-OV-3 = test system: SK-OV-3
SN12C = test system: SN12C
SNB-19 = test system: SNB-19
SW-620 = test system: SW-620
T47D = test system: T47D
TK-10 = test system: TK-10
U-251 = test system: U-251
UACC-257 = test system: UACC-257
UACC-62 = test system: UACC-62
UO-31 = test system: UO-31
K562 = test system: K562
SNB-75 = test system: SNB-75
SR = test system: SR

Measured: GI50

COc1cc2c(cc1O)C1Cc3ccc(OC)c(O)c3C(C2)N1C (stereo unspecified)
> 100 µM: HCT-15
inactive: 786-0 > 100 µM | A498 > 100 µM | A549 > 100 µM | ACHN > 100 µM | BT-549 > 100 µM | CAKI-1 > 100 µM | CCRF-CEM > 100 µM | COLO 205 > 100 µM | DU-145 > 100 µM | EKVX > 100 µM | HCC 2998 > 100 µM | HCT-116 > 100 µM | HL-60 > 100 µM | HOP-62 92.9 µM | HOP-92 17.5 µM | HT-29 71 µM | Hs-578T 42.8 µM | IGROV-1 > 100 µM | KM12 > 100 µM | LOX IMVI > 100 µM | M14 > 100 µM | MCF7 > 100 µM | MDA-MB-231 41.5 µM | MDA-MB-435 > 100 µM | MDA-N > 100 µM | MOLT-4 58.1 µM | Malme-3M > 100 µM | NCI-H226 > 100 µM | NCI-H23 > 100 µM | NCI-H460 94 µM | NCI-H522 > 100 µM | NCI/ADR-RES > 100 µM | OVCAR-3 > 100 µM | OVCAR-4 > 100 µM | OVCAR-5 > 100 µM | OVCAR-8 > 100 µM | PC-3 90.8 µM | RPMI-8226 > 100 µM | RXF 393 > 100 µM | SF-268 > 100 µM | SF-295 > 100 µM | SF-539 > 100 µM | SK-MEL-28 > 100 µM | SK-MEL-2 > 100 µM | SK-MEL-5 > 100 µM | SK-OV-3 > 100 µM | SN12C > 100 µM | SNB-19 > 100 µM | SW-620 > 100 µM | T47D > 100 µM | TK-10 > 100 µM | U-251 > 100 µM | UACC-257 > 100 µM | UACC-62 > 100 µM | UO-31 > 100 µM

Cn1c(=O)c2c(ncn2Cc2ccc(O)c([N+](=O)[O-])c2)n(C)c1=O
inactive: 786-0 > 100 µM | A498 > 100 µM | A549 > 100 µM | ACHN > 100 µM | BT-549 > 100 µM | CAKI-1 > 100 µM | CCRF-CEM > 100 µM | COLO 205 > 100 µM | DU-145 > 100 µM | EKVX > 100 µM | HCT-116 > 100 µM | HL-60 > 100 µM | HOP-62 > 100 µM | HT-29 > 100 µM | Hs-578T > 100 µM | IGROV-1 > 100 µM | K562 > 100 µM | KM12 > 100 µM | LOX IMVI > 100 µM | M14 > 100 µM | MCF7 > 100 µM | MDA-MB-231 > 100 µM | MDA-MB-435 > 100 µM | MDA-N > 100 µM | MOLT-4 > 100 µM | NCI-H226 > 100 µM | NCI-H23 > 100 µM | NCI-H460 > 100 µM | NCI-H522 > 100 µM | NCI/ADR-RES > 100 µM | OVCAR-3 > 100 µM | OVCAR-4 > 100 µM | OVCAR-5 > 100 µM | OVCAR-8 > 100 µM | PC-3 > 100 µM | RPMI-8226 > 100 µM | SF-268 > 100 µM | SF-295 > 100 µM | SF-539 > 100 µM | SK-MEL-28 > 100 µM | SK-MEL-2 > 100 µM | SK-MEL-5 > 100 µM | SK-OV-3 > 100 µM | SN12C > 100 µM | SNB-19 > 100 µM | SNB-75 > 100 µM | SR > 100 µM | SW-620 > 100 µM | T47D > 100 µM | TK-10 > 100 µM | U-251 > 100 µM | UACC-257 > 100 µM | UACC-62 > 100 µM | UO-31 > 100 µM
> 100 µM: HCT-15
